What all share (set-up): host or cells: CHO cells, stably transfected
The target of assay [1] is T1, M1 muscarinic receptor (Homo sapiens, UniProt P11229).
T1 sequence (P11229 1-460): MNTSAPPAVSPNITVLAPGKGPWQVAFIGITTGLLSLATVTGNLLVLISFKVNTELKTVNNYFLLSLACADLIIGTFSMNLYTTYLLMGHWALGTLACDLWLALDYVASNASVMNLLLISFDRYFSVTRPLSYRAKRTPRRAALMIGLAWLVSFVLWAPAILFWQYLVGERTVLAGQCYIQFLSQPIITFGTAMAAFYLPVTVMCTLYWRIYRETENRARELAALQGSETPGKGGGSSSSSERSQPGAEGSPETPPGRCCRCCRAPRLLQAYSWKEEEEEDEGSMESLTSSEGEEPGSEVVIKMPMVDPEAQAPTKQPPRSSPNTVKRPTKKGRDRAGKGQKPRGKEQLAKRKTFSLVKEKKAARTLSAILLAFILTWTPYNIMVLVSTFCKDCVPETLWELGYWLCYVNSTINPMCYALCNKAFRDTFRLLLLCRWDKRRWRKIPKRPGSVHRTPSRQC
Description: [3H]NMS competition binding, M1 CHO membranes. The note with it: competition with 1 nM [3H]NMS; read-out: Inhibition constants (Ki) as negative logarithms, M1 (converted).

Assay [2] deals with T2, M2 muscarinic receptor (Homo sapiens, UniProt P08172).
T2 sequence (P08172 1-466): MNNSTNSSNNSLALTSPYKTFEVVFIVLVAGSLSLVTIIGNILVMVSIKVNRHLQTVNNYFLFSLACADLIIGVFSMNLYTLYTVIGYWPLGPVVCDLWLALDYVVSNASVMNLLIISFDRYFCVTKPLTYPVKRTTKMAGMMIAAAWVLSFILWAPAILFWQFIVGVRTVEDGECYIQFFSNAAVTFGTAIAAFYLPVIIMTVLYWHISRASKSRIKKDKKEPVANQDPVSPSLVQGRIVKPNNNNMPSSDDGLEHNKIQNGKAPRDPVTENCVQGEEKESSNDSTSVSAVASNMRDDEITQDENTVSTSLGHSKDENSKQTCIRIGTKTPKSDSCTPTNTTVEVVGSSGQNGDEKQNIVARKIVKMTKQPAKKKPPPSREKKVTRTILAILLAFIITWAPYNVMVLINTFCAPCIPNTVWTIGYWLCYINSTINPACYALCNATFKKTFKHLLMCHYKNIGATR
As to the kind of experiment: inhibition of forskolin-stimulated cAMP, M2 CHO cells (M2Gi). The note with it: M2 (↓cAMP), preferential response, relative to carbachol; Tables 2, 3, 7. It counts as cell-based.

The target in assay [3] is T2, M2 muscarinic receptor. As to the kind of experiment: [3H]NMS competition binding, M2 CHO membranes. The note with it: competition with 1 nM [3H]NMS; read-out: Inhibition constants (Ki) as negative logarithms, M2 (converted).
In assay [4] the target is T3, M5 muscarinic receptor (Homo sapiens, UniProt P08912).
T3 sequence (P08912 1-532): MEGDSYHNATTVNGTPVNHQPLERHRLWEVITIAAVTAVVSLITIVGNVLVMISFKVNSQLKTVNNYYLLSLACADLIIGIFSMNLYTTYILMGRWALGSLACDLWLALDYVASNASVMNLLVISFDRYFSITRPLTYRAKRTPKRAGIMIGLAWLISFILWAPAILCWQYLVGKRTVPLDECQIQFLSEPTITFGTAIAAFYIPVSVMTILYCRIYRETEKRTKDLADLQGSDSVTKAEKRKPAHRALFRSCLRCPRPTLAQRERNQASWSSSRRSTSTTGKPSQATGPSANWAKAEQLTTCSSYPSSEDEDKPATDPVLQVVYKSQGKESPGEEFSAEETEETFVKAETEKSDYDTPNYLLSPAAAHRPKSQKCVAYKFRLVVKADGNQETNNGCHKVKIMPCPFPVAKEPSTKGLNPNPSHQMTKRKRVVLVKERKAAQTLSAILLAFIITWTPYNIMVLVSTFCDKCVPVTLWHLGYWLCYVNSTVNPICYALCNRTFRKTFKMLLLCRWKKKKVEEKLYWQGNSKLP
As to the kind of experiment: accumulation of IPX, M5 CHO cells (M5Gq). The format is cell-based. The note with it: M5 (↑IPX), preferential response, relative to carbachol; Tables 2, 3, 7.

Assay [5] addresses T4, M4 muscarinic receptor (Homo sapiens, UniProt P08173).
T4 sequence (P08173 1-479): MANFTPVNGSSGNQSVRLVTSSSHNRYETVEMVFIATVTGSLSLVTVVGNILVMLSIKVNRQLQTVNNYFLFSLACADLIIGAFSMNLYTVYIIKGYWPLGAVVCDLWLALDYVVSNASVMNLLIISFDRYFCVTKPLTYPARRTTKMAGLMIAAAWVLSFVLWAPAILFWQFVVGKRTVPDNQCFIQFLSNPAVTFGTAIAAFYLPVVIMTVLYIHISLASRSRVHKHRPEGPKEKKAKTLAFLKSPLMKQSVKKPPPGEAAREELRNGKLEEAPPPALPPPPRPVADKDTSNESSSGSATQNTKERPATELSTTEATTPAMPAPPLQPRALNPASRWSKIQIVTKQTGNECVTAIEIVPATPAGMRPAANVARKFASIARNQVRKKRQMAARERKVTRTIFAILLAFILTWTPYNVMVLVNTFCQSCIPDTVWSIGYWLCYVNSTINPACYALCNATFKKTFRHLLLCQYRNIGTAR
Description: inhibition of forskolin-stimulated cAMP, M4 CHO cells (M4Gi). The format is cell-based. The note with it: M4 (↓cAMP), preferential response, relative to carbachol; Tables 2, 3, 7.

Assay [6] deals with T4, M4 muscarinic receptor. As to the kind of experiment: [3H]NMS competition binding, M4 CHO membranes. The note with it: competition with 1 nM [3H]NMS; read-out: Inhibition constants (Ki) as negative logarithms, M4 (converted).
Assay [7] deals with T5, M3 muscarinic receptor (Homo sapiens, UniProt P20309). Description: accumulation of IPX, M3 CHO cells (M3Gq). The format is cell-based. The note with it: M3 (↑IPX), preferential response, relative to carbachol; Tables 2, 3, 7.
T5 sequence (P20309 whole entry): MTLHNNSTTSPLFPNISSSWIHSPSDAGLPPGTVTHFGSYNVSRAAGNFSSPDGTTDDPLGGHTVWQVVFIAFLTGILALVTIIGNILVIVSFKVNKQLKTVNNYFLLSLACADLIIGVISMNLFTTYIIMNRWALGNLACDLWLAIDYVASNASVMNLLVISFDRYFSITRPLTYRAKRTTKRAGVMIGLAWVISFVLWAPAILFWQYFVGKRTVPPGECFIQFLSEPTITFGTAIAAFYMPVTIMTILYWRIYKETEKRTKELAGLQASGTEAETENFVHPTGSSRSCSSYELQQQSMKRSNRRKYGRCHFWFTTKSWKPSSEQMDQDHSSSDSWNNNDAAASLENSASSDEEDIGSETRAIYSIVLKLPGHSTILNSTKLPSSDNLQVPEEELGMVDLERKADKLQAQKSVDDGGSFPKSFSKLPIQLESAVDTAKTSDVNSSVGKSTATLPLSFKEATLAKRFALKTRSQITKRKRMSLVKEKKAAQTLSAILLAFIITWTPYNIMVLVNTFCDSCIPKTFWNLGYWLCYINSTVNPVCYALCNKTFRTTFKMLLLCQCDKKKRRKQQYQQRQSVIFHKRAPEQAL
Assay [8] has as its target T1, M1 muscarinic receptor. Description: accumulation of inositol phosphates IPX, M1 CHO cells (M1Gq). It counts as cell-based. The note with it: M1 (↑IPX), preferential response, relative to carbachol; Tables 2, 3, 7.
Assay [9] deals with T3, M5 muscarinic receptor. Description: [3H]NMS competition binding, M5 CHO membranes. The note with it: competition with 1 nM [3H]NMS; read-out: Inhibition constants (Ki) as negative logarithms, M5 (converted).
Assay [10] addresses T5, M3 muscarinic receptor. Description: [3H]NMS competition binding, M3 CHO membranes. The note with it: competition with 1 nM [3H]NMS; read-out: Inhibition constants (Ki) as negative logarithms, M3 (converted).

Structures are written as SMILES.

Take `Cc1csc(CN2CC=CCC2)c1.Cl` [Compound 6E, 1-[(4-methylthiophen-2-yl)methyl]-1,2,3,6-tetrahydropyridin-1-ium chloride]: the inhibition constant Ki on M1 muscarinic receptor [1] was 31.6 µM; on M2 muscarinic receptor [3], 12.6 µM; at M4 muscarinic receptor [6] it was 31.6 µM; on M5 muscarinic receptor [9], 31.6 µM; at M3 muscarinic receptor [10], 50.1 µM. For the same compound, the RAi at M2 muscarinic receptor [2], at M5 muscarinic receptor [4], on M4 muscarinic receptor [5], on M3 muscarinic receptor [7] and at M1 muscarinic receptor [8] was 0 throughout.
